According to patent US11767341B2, “Lincosamide antibiotics and uses thereof” (President and Fellows of Harvard College, priority 2017, dated 2023):
Like-named read-outs stand apart in the source and are kept apart here.

What was measured:
Assay in all cases: MIC determination
Format in all cases: cell-based
K. pneumoniae ATCC 10031 = conditions: Klebsiella pneumoniae, ATCC10031
[1] = test system: S. aureus MP-513 clinical cErm; conditions: Staphylococcus aureus
S. aureus ATCC 29213 = conditions: Staphylococcus aureus
E. coli MP-9 ΔTolC = conditions: Escherichia coli
E. coli ATCC 25922 = conditions: Escherichia coli, ATCC25922
P. aeruginosa ATCC 27853 = conditions: Pseudomonas aeruginosa, ATCC27853
[2] = test system: S. aureus MP-549 msr(a) USA 300; conditions: Staphylococcus aureus, USA300, S. aureus MP-549 msr(a) USA 300
S. aureus BAA 977 iErmA = conditions: Staphylococcus aureus, BAA977
S. aureus MMX 3035 cErmA = conditions: Staphylococcus aureus, MMX3035CERMA
S. pyogenes ATCC 19615 = conditions: Streptococcus pyogenes, ATCC19615
[3] = test system: S. pneumoniae MMX 3028 cErmB; conditions: Streptococcus pneumoniae, MMX3028CERMB
H. influenzae ATCC 49247 = conditions: Haemophilus influenzae, ATCC49247
[4] = test system: P. aeruginosa MMX Mex parent strain; conditions: Pseudomonas aeruginosa
[5] = test system: S. pyogenes MMX 946 Macrolide-Resistant; conditions: Streptococcus pyogenes
B. fragilis ATCC 25285 = conditions: Bacteroides fragilis, ATCC25285
[6] = test system: E. coli MMX TolC parent strain; conditions: Escherichia coli
C. difficile BAA 1805 = conditions: Clostridioides difficile, BAA1805
[7] = test system: E. faecalis MMX 847 Macrolide-Resistant; conditions: Enterococcus faecalis
S. pneumoniae ATCC 49619 = conditions: Streptococcus pneumoniae, ATCC49619; S. pneumoniae ATCC 49619; read-out: MIC
E. faecalis ATCC 29212 = conditions: Enterococcus faecalis, ATCC29212
E. coli MMX 0121 ΔTolC = conditions: Escherichia coli
[8] = test system: S. pneumoniae MMX 3031 cMefA; conditions: Streptococcus pneumoniae, MMX3031CMEFA
[9] = test system: P. aeruginosa MMX 3476 Δmex; conditions: Pseudomonas aeruginosa
[10] = test system: S. aureus Micromyx USA 300; conditions: Staphylococcus aureus, USA300
[11] = ATCC29213, S. aureus ATCC 29213, read-out: MIC

Measured: MIC

CSC1O[C@H]([C@H](NC(=O)[C@H]2NC[C@@H]3CN(C(=N)N)CCO[C@H]32)[C@H](C)Cl)C(O)C(O)[C@H]1O (some centres unmarked) [FSA-504057]
> 64 µg/mL: K. pneumoniae ATCC 10031 | [1] | S. aureus ATCC 29213; ATCC29213 | E. coli MP-9 ΔTolC | E. coli ATCC 25922 | P. aeruginosa ATCC 27853

CCCN1CCO[C@@H]2[C@H](CN[C@@H]2C(=O)N[C@H]([C@H](C)Cl)[C@H]2OC(SC)[C@H](O)C(O)C2O)C1 (some centres unmarked) [FSA-503003]
4 µg/mL: S. aureus ATCC 29213; [11] | S. aureus BAA 977 iErmA
> 64 µg/mL: K. pneumoniae ATCC 10031 | [1] | E. coli MP-9 ΔTolC | E. coli ATCC 25922 | P. aeruginosa ATCC 27853
2 µg/mL: [2]

CSC1O[C@H]([C@H](NC(=O)[C@H]2NC[C@@H]3CN(CC(=O)O)CCO[C@H]32)[C@H](C)Cl)C(O)C(O)[C@H]1O (some centres unmarked) [FSA-504063]
> 64 µg/mL: K. pneumoniae ATCC 10031 | [1] | S. aureus ATCC 29213; ATCC29213 | E. coli MP-9 ΔTolC | E. coli ATCC 25922 | P. aeruginosa ATCC 27853

CCNC(=O)N1CCO[C@@H]2[C@H](CN[C@@H]2C(=O)N[C@H]([C@H](C)Cl)[C@H]2OC(SC)[C@H](O)C(O)C2O)C1 (some centres unmarked) [FSA-503004]
> 64 µg/mL: [2] | K. pneumoniae ATCC 10031 | [1] | S. aureus ATCC 29213; ATCC29213 | E. coli MP-9 ΔTolC | E. coli ATCC 25922 | P. aeruginosa ATCC 27853 | S. aureus BAA 977 iErmA

CSC1O[C@H]([C@H](NC(=O)[C@H]2NC[C@H]3CC=CCO[C@H]32)[C@H](C)Cl)C(O)[C@@H](O)[C@H]1O (some centres unmarked) [FSA-507051]
1 µg/mL: S. pneumoniae ATCC 49619 | [8]
32 µg/mL: [5] | B. fragilis ATCC 25285 | E. coli ATCC 25922
16 µg/mL: H. influenzae ATCC 49247 | S. aureus ATCC 29213; ATCC29213 | S. aureus BAA 977 iErmA | [10]
0.5 µg/mL: S. pyogenes ATCC 19615
> 32 µg/mL: S. aureus MMX 3035 cErmA | [3] | [4] | [6] | C. difficile BAA 1805 | [7] | E. faecalis ATCC 29212 | P. aeruginosa ATCC 27853 | E. coli MMX 0121 ΔTolC | [9]

CSC1O[C@H]([C@H](NC(=O)[C@@H]2[C@@H]3OCC=CC[C@H]3CN2C)[C@H](C)Sc2ccc(-c3cncnc3)cc2)C(O)[C@@H](O)[C@H]1O (some centres unmarked) [FSA-212034]
≤ 0.06 µg/mL: S. pyogenes ATCC 19615; S. pyogenes ATCC 19615, read-out: MIC | S. pneumoniae ATCC 49619 | [8]
0.25 µg/mL: S. aureus ATCC 29213; [11] | S. aureus BAA 977 iErmA | [10]; S. aureus Micromyx USA 300, read-out: MIC
0.5 µg/mL: [2] | C. difficile BAA 1805
> 64 µg/mL: [4] | [6] | [7] | E. coli ATCC 25922 | P. aeruginosa ATCC 27853 | [9]
32 µg/mL: S. aureus MMX 3035 cErmA; S. aureus MMX 3035 cErmA, read-out: MIC
1 µg/mL: B. fragilis ATCC 25285; B. fragilis ATCC 25285, read-out: MIC | E. coli MMX 0121 ΔTolC
64 µg/mL: K. pneumoniae ATCC 10031; K. pneumoniae ATCC 10031, read-out: MIC
2 µg/mL: [5]; S. pyogenes MMX 946 Macrolide-Resistant (MacRes), read-out: MIC
16 µg/mL: E. coli MP-9 ΔTolC | E. faecalis ATCC 29212
4 µg/mL: [3]; S. pneumoniae MMX 3028 cErmB, read-out: MIC | H. influenzae ATCC 49247; H. influenzae ATCC 49247, read-out: MIC
